From PMC12775422 (NPJ Biofilms and Microbiomes, 2025)

Molecular target: T1, ferredoxin PA1551 (Pseudomonas aeruginosa, UniProt Q9I3G6)
T1 sequence (Q9I3G6 1-471): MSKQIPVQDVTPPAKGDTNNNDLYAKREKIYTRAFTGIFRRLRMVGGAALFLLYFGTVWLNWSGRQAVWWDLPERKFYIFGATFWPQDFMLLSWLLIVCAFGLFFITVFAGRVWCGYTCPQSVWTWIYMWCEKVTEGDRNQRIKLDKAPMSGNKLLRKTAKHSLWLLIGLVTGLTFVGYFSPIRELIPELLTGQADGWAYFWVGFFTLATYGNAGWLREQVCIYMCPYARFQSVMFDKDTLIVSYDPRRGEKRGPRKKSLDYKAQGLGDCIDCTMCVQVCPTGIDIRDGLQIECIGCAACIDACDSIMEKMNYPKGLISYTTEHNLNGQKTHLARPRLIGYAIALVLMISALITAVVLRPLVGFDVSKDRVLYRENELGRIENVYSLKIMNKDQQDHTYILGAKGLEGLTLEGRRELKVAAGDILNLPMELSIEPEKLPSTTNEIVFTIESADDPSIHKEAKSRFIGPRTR
Test: microscale thermophoresis
Format: binding

Kd: 57 nM
Structure (SMILES): CCCCCCC(=O)NCc1c(O)c(=O)cc(C)n1C [10d, 2-(heptanamido)methyl 3-hydroxy-1,6-dimethylpyridin-4(1H)-one]
